Assay results published in ChEMBL document CHEMBL4312005, “Optimization of pyrrolizine-based Schiff bases with 4-thiazolidinone motif: Design, synthesis and investigation of cytotoxicity and anti-inflammatory potency” (Eur J Med Chem, 2020).

Tests used:
[1] = Selectivity index, ratio of IC50 for cytotoxicity against human MRC5 cells to IC50 for antiproliferative activity against human MCF7 cells; settings: MRC5 cells versus MCF7 cells
MCF7 [2] = experiment: Induction of apoptosis in human MCF7 cells assessed as late apoptotic cells at 10 uM incubated for 24 hrs by annexin V FITC and propidium iodide staining based flow cytometry (reference value: 0 to 2.5 %); type: functional
MCF7 [3] = experiment: Cell cycle arrest in human MCF7 cells assessed as G1 accumulation at 1 uM incubated for 24 hrs by propidium iodide based flow cytometry (reference value: 49.6 to 55.1 %); type: functional
[4] = biological target: T1, Mitogen-activated protein kinase kinase kinase 5 (Homo sapiens) (UniProt Q99683); experiment: Inhibition of recombinant human N-terminal GST-tagged ASK1 (649 to 946 residues) expressed in baculovirus infected Sf9 insect cells assessed as enzyme activity incubated for 15 mins by [gamma-33]ATP based scintillation counting method relative to control; set-up: scale not given: the % may be the effect or the level left
T1 sequence (whole entry): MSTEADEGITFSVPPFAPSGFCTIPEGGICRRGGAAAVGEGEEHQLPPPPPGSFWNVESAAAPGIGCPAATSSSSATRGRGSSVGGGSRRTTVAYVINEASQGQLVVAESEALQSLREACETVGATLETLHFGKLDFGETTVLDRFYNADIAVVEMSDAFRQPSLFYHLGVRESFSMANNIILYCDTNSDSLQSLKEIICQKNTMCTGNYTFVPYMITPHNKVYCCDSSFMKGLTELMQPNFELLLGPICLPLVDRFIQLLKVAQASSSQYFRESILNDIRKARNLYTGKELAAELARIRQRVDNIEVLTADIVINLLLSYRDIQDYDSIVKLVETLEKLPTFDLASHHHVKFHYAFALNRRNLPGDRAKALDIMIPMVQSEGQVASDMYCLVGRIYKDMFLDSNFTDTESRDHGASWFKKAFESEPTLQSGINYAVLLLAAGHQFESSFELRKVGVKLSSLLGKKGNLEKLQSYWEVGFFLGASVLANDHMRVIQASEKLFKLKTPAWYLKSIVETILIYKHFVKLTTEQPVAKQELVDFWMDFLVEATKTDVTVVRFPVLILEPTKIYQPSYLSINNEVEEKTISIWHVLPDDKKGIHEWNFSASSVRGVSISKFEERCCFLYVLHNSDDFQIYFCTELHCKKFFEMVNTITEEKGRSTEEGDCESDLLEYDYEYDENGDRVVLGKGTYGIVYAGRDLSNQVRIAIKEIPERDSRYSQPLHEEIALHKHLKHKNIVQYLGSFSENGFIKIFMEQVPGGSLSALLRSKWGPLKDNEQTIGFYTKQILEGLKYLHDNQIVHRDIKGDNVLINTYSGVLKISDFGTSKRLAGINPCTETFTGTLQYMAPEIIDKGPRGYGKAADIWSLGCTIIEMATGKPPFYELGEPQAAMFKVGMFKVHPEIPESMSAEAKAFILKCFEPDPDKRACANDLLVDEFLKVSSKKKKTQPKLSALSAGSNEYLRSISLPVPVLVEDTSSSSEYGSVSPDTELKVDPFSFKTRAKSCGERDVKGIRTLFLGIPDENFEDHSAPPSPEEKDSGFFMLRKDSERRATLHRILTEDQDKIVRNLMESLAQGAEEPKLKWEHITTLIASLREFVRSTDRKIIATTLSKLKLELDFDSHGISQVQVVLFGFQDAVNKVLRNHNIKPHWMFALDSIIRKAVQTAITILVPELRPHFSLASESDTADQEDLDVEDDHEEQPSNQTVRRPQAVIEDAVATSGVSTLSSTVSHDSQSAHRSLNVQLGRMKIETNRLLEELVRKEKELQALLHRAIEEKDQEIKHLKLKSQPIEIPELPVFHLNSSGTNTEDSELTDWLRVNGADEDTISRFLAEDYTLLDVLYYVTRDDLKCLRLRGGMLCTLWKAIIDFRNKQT

MCF7 [5] = experiment: Induction of apoptosis in human MCF7 cells assessed as early apoptotic cells at 1 uM incubated for 24 hrs by annexin V FITC and propidium iodide staining based flow cytometry (reference value: 0 to 9 %); type: functional
MCF7 [6] = experiment: Induction of apoptosis in human MCF7 cells assessed as late apoptotic cells at 1 uM incubated for 24 hrs by annexin V FITC and propidium iodide staining based flow cytometry (reference value: 0 to 2.5 %); type: functional
MCF7 [7] = experiment: Cell cycle arrest in human MCF7 cells assessed as G2/M phase accumulation at 1 uM incubated for 24 hrs by propidium iodide based flow cytometry (reference value: 17.2 to 26.8 %); type: functional
MCF7 [8] = experiment: Cell cycle arrest in human MCF7 cells assessed as subG1 accumulation at 10 uM incubated for 24 hrs by propidium iodide based flow cytometry (reference value: 0.6 to 3 %); type: functional
MCF7 [9] = experiment: Cell cycle arrest in human MCF7 cells assessed as G2/M phase accumulation at 10 uM incubated for 24 hrs by propidium iodide based flow cytometry (reference value: 17.2 to 26.8 %); type: functional
[10] = biological target: Activin receptor type-1-like (Homo sapiens) (UniProt P37023); experiment: Inhibition of recombinant human N-terminal GST-tagged ALK1 (144 to end residues) expressed in baculovirus infected Sf9 insect cells assessed as enzyme activity incubated for 15 mins by [gamma-33]ATP based scintillation counting method relative to control; set-up: scale not given: the % may be the effect or the level left
Activin receptor type-1-like (Homo sapiens), sequence (P37023 whole entry): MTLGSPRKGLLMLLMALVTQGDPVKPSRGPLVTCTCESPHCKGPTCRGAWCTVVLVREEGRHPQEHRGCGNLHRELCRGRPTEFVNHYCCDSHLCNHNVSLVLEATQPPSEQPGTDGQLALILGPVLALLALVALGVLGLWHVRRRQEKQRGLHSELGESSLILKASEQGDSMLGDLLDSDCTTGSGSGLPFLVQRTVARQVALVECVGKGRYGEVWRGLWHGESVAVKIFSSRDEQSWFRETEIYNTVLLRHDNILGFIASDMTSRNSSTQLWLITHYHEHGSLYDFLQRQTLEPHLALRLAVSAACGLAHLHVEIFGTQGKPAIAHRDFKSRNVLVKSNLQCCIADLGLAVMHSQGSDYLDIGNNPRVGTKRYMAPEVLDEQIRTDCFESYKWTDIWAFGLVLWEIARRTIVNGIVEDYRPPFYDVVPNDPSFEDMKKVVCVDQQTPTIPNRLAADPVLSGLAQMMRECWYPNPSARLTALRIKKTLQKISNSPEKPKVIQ

[11] = biological target: AMP-activated protein kinase (AMPK) alpha-1/beta-1/gamma-1 (Homo sapiens) (UniProt P54619+Q9Y478+Q13131); experiment: Inhibition of recombinant human C-terminal His-tagged full length AMPK alpha1/beta1/gamma1 expressed in baculovirus infected Sf9 insect cells assessed as enzyme activity incubated for 15 mins by [gamma-33]ATP based scintillation counting method relative to control; set-up: scale not given: the % may be the effect or the level left
AMP-activated protein kinase (AMPK) alpha-1/beta-1/gamma-1 (Homo sapiens), sequence (P54619 whole entry): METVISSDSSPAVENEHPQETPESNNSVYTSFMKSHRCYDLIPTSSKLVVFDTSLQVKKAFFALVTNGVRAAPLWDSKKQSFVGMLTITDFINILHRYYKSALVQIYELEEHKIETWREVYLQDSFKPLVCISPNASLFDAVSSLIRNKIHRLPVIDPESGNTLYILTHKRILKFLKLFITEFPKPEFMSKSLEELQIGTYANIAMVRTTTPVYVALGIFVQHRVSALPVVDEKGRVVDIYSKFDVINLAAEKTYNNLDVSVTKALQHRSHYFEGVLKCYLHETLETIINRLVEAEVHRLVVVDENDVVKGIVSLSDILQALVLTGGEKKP
AMP-activated protein kinase (AMPK) alpha-1/beta-1/gamma-1 (Homo sapiens), sequence (Q13131 whole entry partner): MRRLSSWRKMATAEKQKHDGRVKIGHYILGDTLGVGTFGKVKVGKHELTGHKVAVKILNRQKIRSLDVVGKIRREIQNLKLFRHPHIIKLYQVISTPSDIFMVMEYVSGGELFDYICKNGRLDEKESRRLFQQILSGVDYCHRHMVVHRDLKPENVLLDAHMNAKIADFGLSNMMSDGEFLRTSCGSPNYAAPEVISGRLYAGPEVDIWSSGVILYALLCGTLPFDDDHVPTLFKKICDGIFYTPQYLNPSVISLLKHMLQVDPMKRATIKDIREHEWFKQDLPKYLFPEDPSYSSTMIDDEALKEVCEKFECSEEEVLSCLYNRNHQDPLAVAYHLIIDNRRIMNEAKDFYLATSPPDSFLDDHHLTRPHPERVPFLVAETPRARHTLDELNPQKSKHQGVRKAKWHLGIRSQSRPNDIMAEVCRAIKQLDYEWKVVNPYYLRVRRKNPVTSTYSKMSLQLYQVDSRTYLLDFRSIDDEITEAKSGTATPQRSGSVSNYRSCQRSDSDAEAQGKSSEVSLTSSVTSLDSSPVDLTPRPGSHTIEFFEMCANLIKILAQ
AMP-activated protein kinase (AMPK) alpha-1/beta-1/gamma-1 (Homo sapiens), sequence (Q9Y478 2-270 partner limits assumed): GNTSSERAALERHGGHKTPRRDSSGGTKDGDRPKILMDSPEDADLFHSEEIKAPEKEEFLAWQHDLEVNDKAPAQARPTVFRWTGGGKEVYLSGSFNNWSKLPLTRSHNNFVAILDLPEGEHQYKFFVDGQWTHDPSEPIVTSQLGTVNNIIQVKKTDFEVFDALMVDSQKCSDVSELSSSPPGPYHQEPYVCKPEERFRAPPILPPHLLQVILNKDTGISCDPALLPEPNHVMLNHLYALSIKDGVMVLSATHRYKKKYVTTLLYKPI

[12] = biological target: T2, Aurora kinase A (Homo sapiens) (UniProt O14965); experiment: Inhibition of recombinant human N-terminal GST-tagged full length Aurora A expressed in baculovirus infected Sf9 insect cells assessed as enzyme activity incubated for 15 mins by [gamma-33]ATP based scintillation counting method relative to control; set-up: scale not given: the % may be the effect or the level left
T2 sequence (whole entry): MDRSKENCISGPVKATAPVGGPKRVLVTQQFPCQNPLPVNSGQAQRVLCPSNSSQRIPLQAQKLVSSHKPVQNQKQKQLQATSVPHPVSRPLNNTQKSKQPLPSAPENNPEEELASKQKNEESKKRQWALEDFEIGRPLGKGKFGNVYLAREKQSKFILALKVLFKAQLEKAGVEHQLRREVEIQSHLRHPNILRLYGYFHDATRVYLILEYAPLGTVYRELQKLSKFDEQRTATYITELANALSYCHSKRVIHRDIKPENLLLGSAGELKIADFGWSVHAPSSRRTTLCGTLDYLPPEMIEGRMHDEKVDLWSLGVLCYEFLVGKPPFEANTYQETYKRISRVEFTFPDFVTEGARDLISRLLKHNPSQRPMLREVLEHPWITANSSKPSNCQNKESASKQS

[13] = biological target: Epidermal growth factor receptor (Homo sapiens) (UniProt P00533); experiment: Inhibition of EGFR (unknown origin) assessed as enzyme activity incubated for 15 mins by [gamma-33]ATP based scintillation counting method relative to control; set-up: scale not given: the % may be the effect or the level left
Epidermal growth factor receptor (Homo sapiens), sequence (P00533 whole entry): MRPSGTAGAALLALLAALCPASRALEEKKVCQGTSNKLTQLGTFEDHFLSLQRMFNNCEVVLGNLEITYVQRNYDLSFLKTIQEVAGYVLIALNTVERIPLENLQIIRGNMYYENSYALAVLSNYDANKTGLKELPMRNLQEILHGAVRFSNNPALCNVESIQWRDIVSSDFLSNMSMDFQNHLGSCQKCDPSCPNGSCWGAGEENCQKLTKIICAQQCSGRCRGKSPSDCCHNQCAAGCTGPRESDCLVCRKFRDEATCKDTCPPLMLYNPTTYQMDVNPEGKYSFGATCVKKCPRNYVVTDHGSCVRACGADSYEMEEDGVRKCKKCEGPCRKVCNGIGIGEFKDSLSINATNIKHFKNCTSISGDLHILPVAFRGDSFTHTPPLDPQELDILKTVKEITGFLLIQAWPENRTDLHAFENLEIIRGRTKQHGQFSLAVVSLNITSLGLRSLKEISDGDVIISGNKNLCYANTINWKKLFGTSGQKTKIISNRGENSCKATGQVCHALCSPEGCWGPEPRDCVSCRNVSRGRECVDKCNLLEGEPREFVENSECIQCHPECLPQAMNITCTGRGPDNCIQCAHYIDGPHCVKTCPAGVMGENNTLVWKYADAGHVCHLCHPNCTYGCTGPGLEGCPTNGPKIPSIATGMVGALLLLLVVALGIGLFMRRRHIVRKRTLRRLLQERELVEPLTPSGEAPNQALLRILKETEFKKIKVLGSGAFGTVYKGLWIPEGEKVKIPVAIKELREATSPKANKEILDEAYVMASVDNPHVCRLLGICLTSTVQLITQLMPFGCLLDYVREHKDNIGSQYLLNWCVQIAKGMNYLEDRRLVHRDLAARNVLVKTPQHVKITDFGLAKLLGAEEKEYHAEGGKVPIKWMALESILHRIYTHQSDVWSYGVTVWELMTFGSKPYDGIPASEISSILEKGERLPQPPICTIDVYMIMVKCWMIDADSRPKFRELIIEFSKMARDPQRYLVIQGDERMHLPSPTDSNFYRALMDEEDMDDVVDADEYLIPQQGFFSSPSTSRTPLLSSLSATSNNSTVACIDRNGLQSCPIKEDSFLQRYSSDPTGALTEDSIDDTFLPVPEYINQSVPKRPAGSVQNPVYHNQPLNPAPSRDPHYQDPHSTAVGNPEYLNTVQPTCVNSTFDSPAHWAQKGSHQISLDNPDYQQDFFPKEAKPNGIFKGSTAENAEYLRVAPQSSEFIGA

Compound | selectivity ratio [1] | Activity (MCF7 [2]) | Activity (MCF7 [3]) | Activity [4] | Activity (MCF7 [5]) | Activity (MCF7 [6]) | Activity (MCF7 [7]) | Activity (MCF7 [8]) | Activity (MCF7 [9]) | Activity [10] | Activity [11] | Activity [12] | Activity [13]
CCC1SCC(=O)N1c1c(C#N)c2n(c1C(=O)Nc1ccccc1)CCC2 (stereo unspecified) | 3 to 15 | 10.3% | 56.4% | -3% | 11.5% | 7.5% | 15.6% | 8.9% | 14.1% | -11% | 2% | -11% | 10%
CC/C=N/c1c(C#N)c2n(c1C(=O)Nc1ccccc1)CCC2 |  |  |  | -14% |  |  |  |  |  | 4% | -4% | -8% | -10%
Cc1ccc(NC(=O)c2ccc(CN3CCN(C)CC3)cc2)cc1Nc1nccc(-c2cccnc2)n1 |  |  |  | 5% |  |  |  |  |  | 14% | 18% | -38% | 13%
CC(C)C/C=N/c1c(C#N)c2n(c1C(=O)Nc1ccc(Br)cc1)CCC2 | 39 to 258 | 12.2% | 30.8% | 26% | 13.3% | 10.5% | 12.4% | 0.7% | 15.1% | -5% | 12% | 1% | 40%
